Assay results taken from US20240374602A1, “METHODS FOR TREATING NEUROGENERATIVE DISEASES” (PTC THERAPEUTICS, INC., priority 2021, published 2024).

Test system: MAPT 3R mRNA
Assay: RT-qPCR Assay to Quantify MAPT 3R mRNA in Cells
Type: cell-based
Parameters: key to EC2X: An EC2x value≥3000 nM is indicated by “inactive.”; An EC2x value between >1500 nM and ≤3000 nM is indicated by one star (*); An EC2x value between >1000 nM and ≤1500 nM is indicated by two stars (**); An EC2x value between >500 nM and ≤1000 nM is indicated by three stars (***); An EC2x value between >50 nM and ≤500 nM is indicated by four stars (****); An EC2x value≤50 nM is indicated by five stars (*****)
Settings: cells incubated with compound 24 h; 7-point concentration curve; in house MAPT minigene 3R primer/probe with GAPDH assay; EC2x interpolated from dose response curve
Method: RT-qPCR Assay to Quantify MAPT 3R mRNA in Cells
Test compounds were serially diluted 3.16-fold in 100% DMSO to generate a 7-point concentration curve. Aliquots of 0.5 μL of diluted compounds were transferred to a 96-well flat bottom plate by a liquid handler. An aliquot of 0.5 μL DMSO was also transferred to separate wells and used as controls. Duplicate samples were set up for each compound concentration and for the DMSO control.
Cells were thawed and incubated in cell culture media (DMEM, 1 FBS, and No antibiotic cocktail) for 72 h. Cells were trypsinized, counted, and re-suspended to a concentration of 200,000 cells/mL in cell culture media. A 100 μL aliquot of the cell suspensions were plated at 20,000 cells per well in the compound containing 96 well microtiter plate and incubated for in a cell culture incubator (37° C., […], 100% relative humidity).
After 24 h, media was aspirated from the cells and 20 μL of the RCL2 lysis buffer (10 mM Tris-HCL pH 7.4, 150 mM NaCl, […]) was added to each well and incubated at RT for 1 mi. Chilled nuclease free water (140 μL per well) was added and the plates were immediately transferred on ice. After 1 min on ice, plates were frozen at −80° C. overnight.
Preparation of RT-PCR Reaction Mixture:
An aliquot of 4 μL/well of the cell lysates was transferred using the liquid handler to the Armadillo 384-Well PCR plate containing 6 μL/well of the RT-qPCR reaction mixture that was prepared as detailed above. The plates were then sealed with MicroAmp™ Optical Adhesive Film followed by spinning down for 1 min and placed in the CFX384 thermocycler (BioRad).
The RT-qPCR was carried out at the following temperatures for the indicated time: • Step 1: 48° C. (30 min) • Step 2: 95° C. (10 min) • Step 3: 95° C. (15 sec) • Step 4: 60° C. (1 min); then, repeated Steps 3 and 4 for a total of 40 cycles.
The percent exon 4 skipping was calculated for each dose of compound treatment using Equations 1 and 2.
Data were fit to a dose response curve and the EC2x was interpolated using XLfit® statistical and curve fitting package.
An EC2x value between >1000 nM and ≤1500 nM is indicated by two stars (**). An EC2x value between >500 nM and ≤1000 nM is indicated by three stars (***). An EC2x value between >50 nM and ≤500 nM is indicated by four stars (****). An EC2x value≤50 nM is indicated by five stars (*****).

How did the EC (2-fold) turn out when `Cc1c(C[C@H](C)N)sc2c(NCc3cccnc3F)nc(Cl)nc12` [Cpd 60, 6-[(2S)-2-aminopropyl]-2-chloro-N-[(2-fluoropyridin-3-yl)methyl]-7-methylthieno[3,2-d]pyrimidin-4-amine] was run?
The EC (2-fold) was 1.5 to 3 µM.

With `Cc1nc(NCc2ccco2)c2sc(C[C@H](C)N)c(C)c2n1` [Cpd 15, 6-[(2S)-2-aminopropyl]-N-[(furan-2-yl)methyl]-2,7-dimethylthieno[3,2-d]pyrimidin-4-amine] as the molecule, how does the EC (2-fold) read?
The EC (2-fold) was 0.05 to 0.5 µM.

With `Cc1c(C[C@@H](N)CO)sc2c(NCc3cccs3)nc(Cl)nc12` [Cpd 56, (2R)-2-amino-3-(2-chloro-7-methyl-4-{[(thiophen-2-yl)methyl]amino}thieno[3,2-d]pyrimidin-6-yl)propan-1-ol] as the molecule, how does the EC (2-fold) read?
Its EC (2-fold) is no more than 0.05 µM.

How did the EC (2-fold) turn out when `Cc1c(C[C@H](C)N)sc2c(NCc3nccs3)nc(Cl)nc12` [Cpd 29, 6-[(2S)-2-aminopropyl]-2-chloro-7-methyl-N-[(1,3-thiazol-2-yl)methyl]thieno[3,2-d]pyrimidin-4-amine] was run?
The EC (2-fold) was no more than 0.05 µM.

Which EC (2-fold) does the source give for `Cc1c(C[C@H](C)N)sc2c(NCc3ncc(F)s3)nc(Cl)nc12` [Cpd 93, 6-[(2S)-2-aminopropyl]-2-chloro-N-[(5-fluoro-1,3-thiazol-2-yl)methyl]-7-methylthieno[3,2-d]pyrimidin-4-amine] here?
The EC (2-fold) was 0.05 to 0.5 µM.

For `C[C@H](N)Cc1sc2c(NCc3cccs3)nc(Cl)nc2c1C1CC1` [Cpd 86, 6-[(2S)-2-aminopropyl]-2-chloro-7-cyclopropyl-N-[(thiophen-2-yl)methyl]thieno[3,2-d]pyrimidin-4-amine], which EC (2-fold) is on record?
The EC (2-fold) was 0.05 to 0.5 µM.

With `Cc1c(C[C@@H](N)CCO)sc2c(NCc3ccco3)nc(Cl)nc12` [Cpd 97, (3S)-3-amino-4-(2-chloro-4-{[(furan-2-yl)methyl]amino}-7-methylthieno[3,2-d]pyrimidin-6-yl)butan-1-ol] as the molecule, how does the EC (2-fold) read?
The EC (2-fold) was no more than 0.05 µM.

Which EC (2-fold) does the source give for `CC[C@H](N)Cc1sc2c(NCc3ccns3)nc(Cl)nc2c1C` [Cpd 62, 6-[(2S)-2-aminobutyl]-2-chloro-7-methyl-N-[(1,2-thiazol-5-yl)methyl]thieno[3,2-d]pyrimidin-4-amine] here?
Its EC (2-fold) is 0.05 to 0.5 µM.

For `Cc1csc2c(NCc3ccncc3)nc(Cl)nc12` [Cpd 23, 2-chloro-7-methyl-N-[(pyridin-4-yl)methyl]thieno[3,2-d]pyrimidin-4-amine], which EC (2-fold) is on record?
Its EC (2-fold) is 0.05 to 0.5 µM.

`CC(C)[C@H](N)Cc1cc2nc(Cl)nc(NCc3ccco3)c2s1` [Cpd 5, 6-[(2R)-2-amino-3-methylbutyl]-2-chloro-N-[(furan-2-yl)methyl]thieno[3,2-d]pyrimidin-4-amine] was tested. Which EC (2-fold) did it give?
Its EC (2-fold) is 0.05 to 0.5 µM.

How did the EC (2-fold) turn out when `Cc1ccc(CNc2nc(Cl)nc3c(C)c(C[C@H](C)N)sc23)o1` [Cpd 24, 6-[(2S)-2-aminopropyl]-2-chloro-7-methyl-N-[(5-methylfuran-2-yl)methyl]thieno[3,2-d]pyrimidin-4-amine] was run?
Its EC (2-fold) is 0.05 to 0.5 µM.

With `Cc1c(C[C@H](C)N)sc2c(NCc3nc(F)cs3)nc(Cl)nc12` [Cpd 92, 6-[(2S)-2-aminopropyl]-2-chloro-N-[(4-fluoro-1,3-thiazol-2-yl)methyl]-7-methylthieno[3,2-d]pyrimidin-4-amine] as the molecule, how does the EC (2-fold) read?
Its EC (2-fold) is 0.05 to 0.5 µM.

Which EC (2-fold) does the source give for `Cc1c(C[C@@H](N)CCF)sc2c(NCc3ccco3)nc(Cl)nc12` [Cpd 51, 6-[(2S)-2-amino-4-fluorobutyl]-2-chloro-N-[(furan-2-yl)methyl]-7-methylthieno[3,2-d]pyrimidin-4-amine] here?
The EC (2-fold) was no more than 0.05 µM.

With `Cc1c(C[C@H](C)N)sc2c(NCc3ccc(F)s3)nc(Cl)nc12` [Cpd 33, 6-[(2S)-2-aminopropyl]-2-chloro-N-[(5-fluorothiophen-2-yl)methyl]-7-methylthieno[3,2-d]pyrimidin-4-amine] as the molecule, how does the EC (2-fold) read?
Its EC (2-fold) is 0.05 to 0.5 µM.

How did the EC (2-fold) turn out when `Cc1c(C[C@H](C)NC2CCC2)sc2c(NCc3ccco3)nc(Cl)nc12` [Cpd 78, 2-chloro-6-[(2S)-2-(cyclobutylamino)propyl]-N-[(furan-2-yl)methyl]-7-methylthieno[3,2-d]pyrimidin-4-amine] was run?
Its EC (2-fold) is 1.5 to 3 µM.

`Cc1c(C[C@H](C)N)sc2c(NCc3ccco3)nc(Br)nc12` [Cpd 38, 6-[(2S)-2-aminopropyl]-2-bromo-N-[(furan-2-yl)methyl]-7-methylthieno[3,2-d]pyrimidin-4-amine] was tested. Which EC (2-fold) did it give?
Its EC (2-fold) is 0.5 to 1 µM.

Which EC (2-fold) does the source give for `Cc1c(C[C@@H](C)CN)sc2c(NCc3ccco3)nc(Cl)nc12` [Cpd 72, 6-[(2R)-3-amino-2-methylpropyl]-2-chloro-N-[(furan-2-yl)methyl]-7-methylthieno[3,2-d]pyrimidin-4-amine] here?
The EC (2-fold) was 1.5 to 3 µM.

For `Cc1cnc(CNc2nc(Cl)nc3c(C)c(C[C@H](C)N)sc23)s1` [Cpd 31, 6-[(2S)-2-aminopropyl]-2-chloro-7-methyl-N-[(5-methyl-1,3-thiazol-2-yl)methyl]thieno[3,2-d]pyrimidin-4-amine], which EC (2-fold) is on record?
Its EC (2-fold) is 1.5 to 3 µM.

Which EC (2-fold) does the source give for `Cc1c(C[C@H](C)N)sc2c(NCc3cnco3)nc(Cl)nc12` [Cpd 75, 6-[(2S)-2-aminopropyl]-2-chloro-7-methyl-N-[(1,3-oxazol-5-yl)methyl]thieno[3,2-d]pyrimidin-4-amine] here?
The EC (2-fold) was 0.5 to 1 µM.

Which EC (2-fold) does the source give for `C[C@H](N)Cc1sc2c(NCc3cccs3)nc(Cl)nc2c1Br` [Cpd 82, 6-[(2S)-2-aminopropyl]-7-bromo-2-chloro-N-[(thiophen-2-yl)methyl]thieno[3,2-d]pyrimidin-4-amine] here?
The EC (2-fold) was no more than 0.05 µM.

For `Cc1c(C[C@H](C)N)sc2c(NCc3ccno3)nc(Cl)nc12` [Cpd 39, 6-[(2S)-2-aminopropyl]-2-chloro-7-methyl-N-[(1,2-oxazol-5-yl)methyl]thieno[3,2-d]pyrimidin-4-amine], which EC (2-fold) is on record?
Its EC (2-fold) is 0.05 to 0.5 µM.

With `Cc1c(C[C@H](C)N)sc2c(NCc3cccs3)nc(Cl)nc12` [Cpd 28, 6-[(2S)-2-aminopropyl]-2-chloro-7-methyl-N-[(thiophen-2-yl)methyl]thieno[3,2-d]pyrimidin-4-amine] as the molecule, how does the EC (2-fold) read?
Its EC (2-fold) is no more than 0.05 µM.

With `Cc1c(C[C@H](C)N)sc2c(NCc3ccco3)nc(Cl)nc12` [Cpd 12, 6-[(2S)-2-aminopropyl]-2-chloro-N-[(furan-2-yl)methyl]-7-methylthieno[3,2-d]pyrimidin-4-amine] as the molecule, how does the EC (2-fold) read?
Its EC (2-fold) is no more than 0.05 µM.

With `Cc1c(C[C@H](C)N)sc2c(NCc3sccc3F)nc(Cl)nc12` [Cpd 90, 6-[(2S)-2-aminopropyl]-2-chloro-N-[(3-fluorothiophen-2-yl)methyl]-7-methylthieno[3,2-d]pyrimidin-4-amine] as the molecule, how does the EC (2-fold) read?
The EC (2-fold) was 0.05 to 0.5 µM.

`CCc1c(C[C@H](C)N)sc2c(NCc3ccco3)nc(Cl)nc12` [Cpd 77, 6-[(2S)-2-aminopropyl]-2-chloro-7-ethyl-N-[(furan-2-yl)methyl]thieno[3,2-d]pyrimidin-4-amine] was tested. Which EC (2-fold) did it give?
Its EC (2-fold) is 0.05 to 0.5 µM.

For `Cc1c(C[C@H](C)N)sc2c(NCc3ncccc3F)nc(Cl)nc12` [Cpd 59, 6-[(2S)-2-aminopropyl]-2-chloro-N-[(3-fluoropyridin-2-yl)methyl]-7-methylthieno[3,2-d]pyrimidin-4-amine], which EC (2-fold) is on record?
Its EC (2-fold) is 0.5 to 1 µM.

For `Cc1c(C[C@H](C)N)sc2c(NCc3cncs3)nc(Cl)nc12` [Cpd 74, 6-[(2S)-2-aminopropyl]-2-chloro-7-methyl-N-[(1,3-thiazol-5-yl)methyl]thieno[3,2-d]pyrimidin-4-amine], which EC (2-fold) is on record?
The EC (2-fold) was no more than 0.05 µM.

Which EC2X does the source give for `Cc1c(C[C@H](C)N)sc2c(NCc3c(F)cncc3F)nc(Cl)nc12` [Cpd 64, 6-[(2S)-2-aminopropyl]-2-chloro-N-[(3,5-difluoropyridin-4-yl)methyl]-7-methylthieno[3,2-d]pyrimidin-4-amine] here?
Its EC2X is “inactive”.
